Legend:
[1] = tested on: gut microbiome species; test: Shotgun metagenomics of stool: relative abundance of gut microbiome species after OCA treatment; format: in vivo, human; details: for OCA Response: abundance change of the bacterial species, subjects treated with 10 mg of OCA
Procedure: Twenty-four eligible subjects were enrolled and randomized to 1 of 3 treatment groups (5 mg, 10 mg, or 25 mg) in a treatment ratio of 1:1:1. The study comprised single dose and multiple dose phases. The randomized dose administered in the single dose phase was the subject's dose level for the multiple dose phase. A single dose of OCA (5 mg, 10 mg, or 25 mg) was administered on Day 1. On Day 4, the multiple dose phase began at the same dose level (5 mg, 10 mg, or 25 mg), with subjects receiving OCA once daily for 14 days. The last dose was given to subjects on Day 17. Subjects remained at the inpatient trial site from Day 0 until the morning of Day 30, and returned to the study site for collection of a sample on Days 35, 37, 39, and 44.
Stool specimens for microbiota genome testing were collected up to 2 days prior to submitting them on Day 0, on Day 15, 16, or 17 prior to submitting them on the same day, and up to 2 days prior to submitting them on Day 37. One Day 1, pre-dose blood samples were collected, and serial blood samples were obtained from Day 1 to Day 3 following administration on Day 1 (see Table 1). Multiple dose phase started on Day 4 and lasted through Day 17, during which subjects received once daily doses of OCA (5 mg, 10 mg, or 25 mg) and pre-dose blood samples were drawn (see Table 1).
For microbiome analysis, stool samples were collected on day 0, day 15 or 16, and day 37. FGF19 and C4
The bacterial abundance on species level was generated from MetaPhlAn2 (Segata et al., Nat. Methods 9, 811 (2012)). 341 species were identified from the dataset.
The adaptors, human reads contamination, and low quality sequences were removed from the raw sequencing data using software kneaddata. Trimmomatic (Bolger et al., Bioinformatics 30, 2114 (2014)) was invoked by kneaddata for removing adaptor sequence, trimming low quality bases, and removing low quality reads. Bowtie (Langmead and Salzberg, Nat. Methods 9, 357 (2012)) was invoked by kneaddata for human reads detection. • Removing sequencing noise: For each sample, if the abundance of one species was smaller than 0.05% of the maximum abundance of all species in the sample, it was considered as noise, and the abundance of this species in the sample was set as 0. • Imputing missing value (i.e. Os): Because log 2 transformation was needed in further analysis, adjustment factor (e) was added to the abundance matrix, where e equals 50% of the minimum non-zero abundance value of all samples. • Removing low abundance species: A species was removed if the relative abundance was lower than 0.1% in >=95% of samples. 128 species was kept for further analysis.
• Species differential abundance analysis: The time effect of OCA treatment was studied on three OCA dose groups separately using Friedman rank test. The dose effect of OCA treatment was studied on three time point separately, and Kruskal-Wallis test was used. • Gene differential abundance analysis: For each of the most varying genes, repeated-measure ANOVA was performed to study the time effect and OCA dose effect on gene abundance change.
An open label, randomized, single dose and multiple dose trial to assess the pharmacokinetics of obeticholic acid (OCA) in 24 healthy male or female subjects aged 18 to 55 years receiving 5, 10 or 25 mg OCA was conducted. Stool specimens for microbiota genome testing were collected by subjects up to 2 days before Day 0 (T0), […] (T1), and Day 37 (T2). […]

[2] = tested on: Lactococcus lactis, Streptococcus thermophilus, and Lactobacillus casei/paracasei; test: Minimal inhibitory concentrations (MIC) of bile acids and OCA, aerobic and anaerobic; format: cell-based
From the text: FIGS. 58A-58B: Minimal inhibitory concentrations (MICs) of selected Gram-positive bacterial species in response treatment with two endogenous bile acids and OCA. […] N=3 per measurement. […] N=3 per measurement.
a (Begley et al., FEMS Microbiol Rev. 29, 625-651 (2005)), and conducted genomic analysis is consistent with the notion that specific Gram-positive taxa become proportionally more abundant during OCA administration due to enhanced proliferation. FXR-dependent inhibition of endogenous bile acid synthesis by OCA may reduce the growth inhibitory effects on Gram-positive bacterial species that are normally sensitive to bile acids. To determine if the three bacterial species with the greatest representation of pathways associated with OCA (FIG. 57A) are sensitive to bile acids, the species-specific minimal inhibitory concentrations (MIC) of the two most predominant bile acids in the human small intestine, glycochenodeoxycholic acid (GCDCA) and glycocholic acid (GCA) were determined (FIG. 58A). Since the environment of the small intestinal lumen may transition from an aerobic to anaerobic state along its length (He et al., Proceedings of the National Academy of Sciences of the United States of America, 96, 4586-4591 (1999)), MICs were determined under both aerobic and anaerobic conditions. […] Consistent with this notion, it has been shown that bile salt hydrolases (BSH), enzymes that are unique to bacteria resident in the mammalian gut where they can enhance bile acid tolerance (Begley et al., FEMS Microbiol Rev. 29, 625-651 (2005)), are missing from the genome of S. thermophilus, which is induced by OCA. It can be supported by showing that these species are sensitive to growth inhibition in vitro when exposed to physiologically-relevant concentrations of conjugated bile acids found in the small intestine. […] Since OCA is a bile acid analogue possibly capable of inhibiting bacterial growth, the MICs of OCA for the same bacterial species were determined (FIG. 58B). […] These findings support the notion that OCA treatment leads to the increased growth of bile acid sensitive bacterial taxa by suppressing endogenous bile acid synthesis.

[3] = 10 mg/day dose; cited from earlier work

SMILES: CC[C@H]1[C@@H](O)[C@@H]2[C@H](CC[C@]3(C)[C@@H]([C@H](C)CCC(=O)O)CC[C@@H]23)[C@@]2(C)CC[C@@H](O)C[C@@H]12 [OCA, 3α,7α-dihydroxy-6α-ethyl-5β-cholan-24-oic acid]
- time-dependent effect of OCA on Streptococcus thermophilus abundance in fecal microbiota ([1]; 10 mg OCA group): greatest increase
- abundances of all Gram-negative bacteria following OCA treatment ([1]; 10 mg OCA, Table 15): decreased
- numbers of Lactobacillus casei paracasei and Streptococcus thermophilus upon discontinuation of OCA ([1]; OCA 5 mg, 10 mg, 25 mg): decreased
- abundance of Lactobacillus casei paracasei and Streptococcus thermophilus in stool over time ([1]; OCA 5 mg, 10 mg, 25 mg, Friedman rank test, p<0.05): differentially abundant over time in all three OCA dosage groups
- OCA Response ([1]; Alistipes_putredinis): Decrease
- OCA Response ([1]; Lactococcus_lactis): Increase
- OCA Response ([1]; Subdoligranulum_unclassified): Equivocal
- low abundance gram positive organisms with the use of OCA ([1]; day 16): consistent increase
- OCA dose effect on abundance of Bacteroides uniformis and Streptococcus thermophilus ([1]; day 16 and day 37, Kruskal-Wallis test, p<0.05): significantly different among dose groups
- low abundance gram positive organisms after OCA was discontinued ([1]; day 37): decreased to baseline
- abundances of Gram-positive bacterial genera following OCA treatment ([1]; with two exceptions, 10 mg OCA, Table 15): increased abundances
- inhibition of growth of the three bacterial species (MIC determination) [2]: able to inhibit growth of all three bacterial species
- inhibition of growth at OCA concentrations calculated to be reached in the human small intestine ([2]; ˜40 mM at a 10 mg/day dose): minimal to no inhibition of growth
- OCA concentration calculated to be reached in the human small intestine [3]: ~40 µM
